Laboratory results reported in PubChem BioAssay (NCI).
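Compound exposure: 48 hours, 5 concentrations, 96-well plates. The concentration for 50% growth inhibition is given as GI50. TGI denotes the concentration required for complete inhibition of growth.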

Experiments:
Test in all cases: DTP human tumour cell line panel, 48 h
[1] = system: HS 578T breast
[2] = system: CCRF-CEM leukemia
[3] = system: CAKI-1 renal
[4] = system: NCI/ADR-RES ovarian
[5] = system: SNB-75 CNS
[6] = system: HT29 colon
[7] = system: HCC-2998 colon
[8] = system: MCF7 breast
[9] = system: HCT-15 colon
[10] = system: A549 NSCLC
[11] = system: SF-539 CNS
[12] = system: SF-295 CNS
[13] = system: MDA-MB-231 breast
[14] = system: COLO 205 colon
[15] = system: TK-10 renal
[16] = system: SK-MEL-2 melanoma
[17] = system: A498 renal
[18] = system: SF-268 CNS
[19] = system: DU-145 prostate
[20] = system: RPMI-8226 leukemia
[21] = system: SN12C renal
[22] = system: OVCAR-5 ovarian
[23] = system: OVCAR-8 ovarian
[24] = system: RXF 393 renal
[25] = system: SK-MEL-28 melanoma
[26] = system: KM12 colon
[27] = system: T-47D breast
[28] = system: SK-OV-3 ovarian
[29] = system: OVCAR-3 ovarian
[30] = system: BT-549 breast
[31] = system: SK-MEL-5 melanoma
[32] = system: MDA-MB-435
[33] = system: U251 CNS
[34] = system: NCI-H23 lung
[35] = system: HOP-62 NSCLC
[36] = system: LOX IMVI melanoma
[37] = system: NCI-H522 lung
[38] = system: ACHN renal
[39] = system: EKVX NSCLC
[40] = system: UACC-257 melanoma
[41] = system: M14 melanoma
[42] = system: MOLT-4 leukemia
[43] = system: OVCAR-4 ovarian
[44] = system: IGROV1 ovarian
[45] = system: 786-0 renal
[46] = system: NCI-H460 lung
[47] = system: HCT-116 colon
[48] = system: SNB-19 CNS
[49] = system: SW-620 colon
[50] = system: PC-3 prostate
[51] = system: UACC-62 melanoma
[52] = system: K-562 leukemia
[53] = system: UO-31 renal
[54] = system: HOP-92 NSCLC
[55] = system: NCI-H226 lung

COc1ccc2c(c1)CC[C@@H]1[C@@H]2CC[C@]2(C)C(c3ccco3)=C(C=O)C[C@@H]12
GI50 [1]: 23.2 µM
TGI [1]: 60 µM
GI50 [2]: 1.86 µM
TGI [2]: 4.85 µM
GI50 [3]: 2.5 µM
TGI [3]: 7.59 µM
GI50 [4]: 11.5 µM
TGI [4]: 64.6 µM
GI50 [5]: 27.9 µM
TGI [5]: > 100 µM
GI50 [6]: 5.37 µM
TGI [6]: > 100 µM
GI50 [7]: 6.78 µM
TGI [7]: 26.3 µM
GI50 [8]: 8.2 µM
TGI [8]: > 100 µM
GI50 [9]: 4.19 µM
TGI [9]: 26.7 µM
GI50 [10]: 26.1 µM
TGI [10]: 65.1 µM
GI50 [11]: 20 µM
TGI [11]: 40.6 µM
GI50 [12]: 3.4 µM
TGI [12]: 12.8 µM
GI50 [13]: 10.8 µM
TGI [13]: 30.7 µM
GI50 [14]: 3.58 µM
TGI [14]: > 100 µM
GI50 [15]: 4.93 µM
TGI [15]: 21.2 µM
GI50 [16]: 29.2 µM
TGI [16]: 88.1 µM
GI50 [17]: 26.1 µM
TGI [17]: 64.8 µM
GI50 [18]: 13.6 µM
TGI [18]: > 100 µM
GI50 [19]: 7.82 µM
TGI [19]: 27 µM
GI50 [20]: 3.89 µM
TGI [20]: 32.7 µM
GI50 [21]: 23.1 µM
TGI [21]: 95.2 µM
GI50 [22]: 30.5 µM
TGI [22]: 94.1 µM
GI50 [23]: 31.1 µM
TGI [23]: 74.2 µM
GI50 [24]: 0.484 µM
TGI [24]: 27.6 µM
GI50 [25]: 15.8 µM
TGI [25]: > 100 µM
GI50 [26]: 3.35 µM
TGI [26]: 12.2 µM
GI50 [27]: 18.8 µM
TGI [27]: 92.3 µM
GI50 [28]: 28.9 µM
TGI [28]: 77.7 µM
GI50 [29]: 2.08 µM
TGI [29]: 12.4 µM
GI50 [30]: 17.7 µM
TGI [30]: 43.3 µM
GI50 [31]: 5.72 µM
TGI [31]: 19 µM
GI50 [32]: 2.21 µM
TGI [32]: 5.88 µM
GI50 [33]: 4.13 µM
TGI [33]: 18.1 µM
GI50 [34]: 12.7 µM
TGI [34]: 69.4 µM
GI50 [35]: 20.9 µM
TGI [35]: 46.2 µM
GI50 [36]: 6.89 µM
TGI [36]: 23.8 µM
GI50 [37]: 21.1 µM
TGI [37]: > 100 µM
GI50 [38]: 3.56 µM
TGI [38]: 13.5 µM
GI50 [39]: 20.1 µM
TGI [39]: 48.7 µM
GI50 [40]: 21.7 µM
TGI [40]: 44.6 µM
GI50 [41]: 5.24 µM
TGI [41]: 30.5 µM
GI50 [42]: 7.27 µM
TGI [42]: 38.6 µM
GI50 [43]: 20 µM
TGI [43]: > 100 µM
GI50 [44]: 27 µM
TGI [44]: 78 µM
GI50 [45]: 23.1 µM
TGI [45]: 55.5 µM
GI50 [46]: 5.75 µM
TGI [46]: 35.7 µM
GI50 [47]: 2.95 µM
TGI [47]: 12.8 µM
GI50 [48]: 9.3 µM
TGI [48]: > 100 µM
GI50 [49]: 6.26 µM
TGI [49]: > 100 µM
GI50 [50]: 5.66 µM
TGI [50]: 37.3 µM
GI50 [51]: 3.82 µM
TGI [51]: 16.3 µM
GI50 [52]: 3.56 µM
TGI [52]: 22.7 µM
GI50 [53]: 31 µM
TGI [53]: > 100 µM
GI50 [54]: 8.38 µM
TGI [54]: 28 µM
GI50 [55]: 21.6 µM
TGI [55]: 63.5 µM
